Earlier results, collected in patent publication US20150290272A1, “PHARMACEUTICAL COMPOSITION FOR PREVENTING/TREATING BRAIN INJURY AND ENHANCING RECOVERY OF SEQUELAE AND MANUFACTURE THEREOF” (PhytoHealth Corporation, priority 2014, published 2015).

Tested on: acute ischemic stroke

Question: What does the source list for “rtPA: thrombolysis agent recombinant tissue plasminogen activator (rt-PA) (Actilyse) for acute ischemic stroke”?
Answer: increase in the number of people living without disability (at three to six months, 2014 review): 5%; overall benefit with respect to living without disability (given within three hours of symptom onset): 10%; increased risk of death (in the short term, 2014 review): 2%; people with large strokes who developed substantial brain hemorrhage as a complication (in vivo): 6.4%
